From paper PMC11191877, “Discovery of new Schiff bases of the disalicylic acid scaffold as DNA gyrase and topoisomerase IV inhibitors endowed with antibacterial properties” (Frontiers in Chemistry, 2024)
In brackets after ≈: the same amount, converted by molar mass.

Tests used:
[1] = system: Mycobacterium tuberculosis H37Rv; design: method as in Souza et al., 2007; conditions: ref Souza et al., 2007; cited from earlier work
[2] = system: J774 macrophages; design: method as in Souza et al., 2007; conditions: ref Souza et al., 2007, cited from earlier work
[3] = system: Aspergillus flavus; experiment: Modified Kirby-Bauer disc diffusion (antifungal); format: cell-based; conditions: Aspergillus flavus (fungi)
Procedure: (§1) The antimicrobial activity of compounds 5a-k was assessed using a modified Kirby-Bauer disc diffusion method ([Alkhaldi et al., 2019]; [Al-Wahaibi et al., 2021b]; [Manso et al., 2021]; [Ecevit et al., 2022]). […] Ciprofloxacin was used as a reference medication. […] Compounds 5f-k had promising antibacterial action against Gram-positive and Gram-negative bacteria, ranging from 75% to 115% of typical ciprofloxacin levels.
(§2) In addition, the synthesized compounds 5a-k were evaluated for their antifungal activity against A. flavus and C. albicans, with Fluconazole as a reference medication (Table 1). […]
Standard discs of ciprofloxacin (Antibacterial agent), Fluconazole (Antifungal agent) served as positive controls for antimicrobial activity but filter discs impregnated with 10 µl of solvent (distilled water, chloroform, DMSO) were used as a negative control. Blank paper disks (Schleicher & Schuell, Spain) with a diameter of 8.0 mm were impregnated 10µ of tested concentration of the stock solutions. When a filter paper disc impregnated with a tested chemical is placed on agar the chemical will diffuse from the disc into the agar. This diffusion will place the chemical in the agar only around the disc. The solubility of the chemical and its molecular size will determine the size of the area of chemical infiltration around the disc. If an organism is placed on the agar it will not grow in the area around the disc if it is susceptible to the chemical. This area of no growth around the disc is known as a “Zone of inhibition” or" Clear zone". For the disc diffusion, the zone diameters were measured with slipping calipers of the National Committee for Clinical Laboratory […]
(§3) Agar-based methods such as E-test and disk diffusion can be good alternatives because they are simpler and faster than broth-based methods. […]

[4] = system: Candida albicans; experiment: Modified Kirby-Bauer disc diffusion (antifungal); format: cell-based
Procedure: as §1, §2
(§4) incubated at 35-37 °C for 24-48 hours and yeast as Candida albicans (ATCC 7102) incubated at 30 °C for 24-48 hours and, then the diameters of the inhibition zones were measured in millimeters. Standard discs of ciprofloxacin (Antibacterial agent), Fluconazole (Antifungal agent) served as positive controls for antimicrobial activity but filter discs impregnated with 10 µl of solvent (distilled water, chloroform, DMSO) were used as a negative control. Blank paper disks (Schleicher & Schuell, Spain) with a diameter of 8.0 mm were impregnated 10µ of tested concentration of the stock solutions. When a filter paper disc impregnated with a tested chemical is placed on agar the chemical will diffuse from the disc into the agar. This diffusion will place the chemical in the agar only around the disc. The solubility of the chemical and its molecular size will determine the size of the area of chemical infiltration around the disc. If an organism is placed on the agar it will not grow in the area around the disc if it is susceptible to the chemical. This area of no growth around the disc is known as a “Zone of inhibition” or" Clear zone". For the disc diffusion, the zone diameters were measured with slipping calipers of the National Committee for Clinical Laboratory […]
as §3

[5] = molecular target: T1, E. coli DNA gyrase (Escherichia coli, UniProt P0AES6); experiment: E. coli DNA gyrase supercoiling assay (Inspiralis kit); format: biochemical; conditions: at 1 µM of the compound
T1 construct: purchased Inspiralis
Procedure: The fluorescence was measured with a microplate reader (BioTek Synergy H4,
(§5) NaCl and 50 mM MgCl2) was added to terminate the enzymatic reaction. After
(§6) Initial screening was done at 100 or 10 μM concentration

[6] = system: Staph. aureus; experiment: Modified Kirby-Bauer disc diffusion; format: cell-based, Staphylococcus aureus; conditions: Staph. aureus (G+)
Procedure: as §1, with “levels. […]” for “levels.”
as §4, §3

[7] = system: Staphylococcus aureus; experiment: MIC, twofold serial dilution, 96-well microtiter plate; format: cell-based; conditions: Staphylococcus aureus (G+)
Procedure: (§7) The antibacterial activity of compounds 5f, 5h, 5i, and 5k were evaluated using a twofold serial dilution method ([Parasa et al., 2011]), with ciprofloxacin as the reference compound. The MIC values for certain compounds were obtained through dose-response experiments. The stated values are based on a minimum of two independent experiments, with three replicates per concentration in each experiment. The experimental details can be found in Appendix A (Supplementary Material). […]
(§8) 4.2.2. Minimum inhibitory concentration assay
(§9) In 96-well microtiter plates and […] of fresh bacterial culture of a single McFarland unit overnight, a double serial dilution of each compound […] in sterile standard saline were prepared to every single source well. Ciprofloxacin antibiotic (5 mg / mL - 1) and normal saline were included as standard reference in each assay. The plates were incubated at 37 0C overnight. As an indicator of bacterial growth, […] of p-iodonitrotetrazolium violet (INT) was added to each well and incubated at 37 0C for 30 […]
(§10) min. MIC values are recorded as the lowest concentration of the extract that completely inhibited bacterial growth that is clear well. The colorless tetrazolidium salt acts as an electron accepter and is reduced to a red colored formazan product by biological activity organisms. Where bacterial growth was inhibited, the solution in the well remained clear after incubation with INT. […]
(§11) SybrGOLD in T10 buffer (10 mM Tris HCl with pH 8.0 and 1 mM EDTA) was added. […]

[8] = system: Pseudomonas aeruginosa; experiment: as above; format: cell-based; conditions: Pseudomonas aeruginosa (G−)
Procedure: as §7, §8, §9, §10, §11

[9] = system: Bacillus subtilis; experiment: as above; format: cell-based; conditions: Bacillus subtilis (G+)
Procedure: as §7, §8, §9, §10, §11

[10] = system: Escherichia Coli; experiment: as above; format: cell-based; conditions: Escherichia coli (G−)
Procedure: as §7, §8, §9, §10, §11

[11] = molecular target: T2, E. coli topoisomerase IV (Escherichia coli, UniProt P20083); experiment: E. coli topoisomerase IV inhibitory assay (Inspiralis kit); format: biochemical; conditions: at 1 µM of the compound
T2 construct: purchased Inspiralis
T2 sequence (P20083 whole entry): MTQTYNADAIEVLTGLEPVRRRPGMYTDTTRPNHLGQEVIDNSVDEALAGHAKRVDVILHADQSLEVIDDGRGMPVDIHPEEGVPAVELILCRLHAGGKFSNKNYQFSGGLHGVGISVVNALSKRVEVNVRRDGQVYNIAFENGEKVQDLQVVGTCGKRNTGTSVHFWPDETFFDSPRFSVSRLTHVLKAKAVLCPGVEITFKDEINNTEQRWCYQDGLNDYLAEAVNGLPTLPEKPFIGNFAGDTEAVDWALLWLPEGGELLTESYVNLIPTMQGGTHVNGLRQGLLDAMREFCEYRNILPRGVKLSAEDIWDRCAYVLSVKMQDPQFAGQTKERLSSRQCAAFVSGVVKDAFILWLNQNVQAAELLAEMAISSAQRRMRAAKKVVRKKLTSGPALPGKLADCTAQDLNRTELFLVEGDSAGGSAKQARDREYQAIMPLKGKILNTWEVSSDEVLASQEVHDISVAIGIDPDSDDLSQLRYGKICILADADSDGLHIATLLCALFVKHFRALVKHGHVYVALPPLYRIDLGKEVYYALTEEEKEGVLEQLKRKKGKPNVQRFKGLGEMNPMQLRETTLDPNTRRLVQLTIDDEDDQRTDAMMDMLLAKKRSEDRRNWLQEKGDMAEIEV
T2 sequence (P0AFI2 whole entry, further chain): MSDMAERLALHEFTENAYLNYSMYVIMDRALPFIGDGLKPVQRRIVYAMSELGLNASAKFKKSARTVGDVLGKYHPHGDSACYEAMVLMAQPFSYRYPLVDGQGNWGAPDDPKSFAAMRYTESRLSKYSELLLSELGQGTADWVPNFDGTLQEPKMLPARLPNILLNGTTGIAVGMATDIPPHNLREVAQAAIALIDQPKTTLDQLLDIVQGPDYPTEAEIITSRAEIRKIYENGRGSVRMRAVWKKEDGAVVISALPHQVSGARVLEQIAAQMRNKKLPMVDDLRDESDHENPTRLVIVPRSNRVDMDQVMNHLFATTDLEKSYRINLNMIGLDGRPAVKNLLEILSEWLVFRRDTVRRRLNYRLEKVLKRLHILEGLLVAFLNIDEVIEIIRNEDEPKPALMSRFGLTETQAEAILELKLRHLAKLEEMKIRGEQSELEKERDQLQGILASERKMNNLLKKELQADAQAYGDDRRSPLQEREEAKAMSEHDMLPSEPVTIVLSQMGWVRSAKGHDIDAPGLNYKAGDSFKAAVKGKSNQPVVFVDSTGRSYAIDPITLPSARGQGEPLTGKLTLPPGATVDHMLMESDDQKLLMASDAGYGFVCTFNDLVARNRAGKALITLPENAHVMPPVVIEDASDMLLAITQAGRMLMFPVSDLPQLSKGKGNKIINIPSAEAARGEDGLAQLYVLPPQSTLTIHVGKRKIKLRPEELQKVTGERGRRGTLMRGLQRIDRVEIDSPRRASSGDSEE
Procedure: as §5, §6
A single compound was designated with four wells followed by incubation of
After incubation, medium was removed completely from the […]

[12] = system: Pseudomonas aeruginosa; experiment: Modified Kirby-Bauer disc diffusion; format: cell-based; conditions: Pseudomonas aeruginosa (G−)
Procedure: as §1, with “levels. […]” for “levels.”
as §4, §3

[13] = system: Bacillus subtilis; experiment: Modified Kirby-Bauer disc diffusion; format: cell-based; conditions: Bacillus subtilis (G+)
Procedure: as §1, with “levels. […]” for “levels.”
as §4, §3

[14] = system: Escherichia Coli; experiment: Modified Kirby-Bauer disc diffusion; format: cell-based; conditions: Escherichia Coli (G−)
Procedure: as §1, with “levels. […]” for “levels.”
as §4, §3

| Molecule | MIC [1] [µg/mL] | cytotoxic effects on J774 macrophages ([2]; 1,000 μg/mL) | viable macrophage cells ([2]; J774 macrophages, 1,000 μg/mL) | Inhibition zone diameter [3] [mm/mg Sample] | activity as % of fluconazole ([4]; C. albicans) [%] | Inhibition zone diameter ([4]; Candida albicans (fungi)) [mm/mg Sample] | RA (residual activity of the enzyme) E. Coli DNA gyrase [5] [%] | Inhibition zone diameter [6] [mm/mg Sample] | Minimum inhibitory concentration (MIC) [7] [µg/mL] | Minimum inhibitory concentration (MIC) [8] [µg/mL] | Minimum inhibitory concentration (MIC) [9] [µg/mL] | Minimum inhibitory concentration (MIC) [10] [µg/mL] | RA (residual activity of the enzyme) E. Coli Topo IV [11] [%] | Inhibition zone diameter [12] [mm/mg Sample] | Inhibition zone diameter [13] [mm/mg Sample] | Inhibition zone diameter [14] [mm/mg Sample] |
| --- | --- | --- | --- | --- | --- | --- | --- | --- | --- | --- | --- | --- | --- | --- | --- | --- |
| Oc1ccccc1C=Nc1ccccc1O [I, N-(salicylidene)-2-hydroxyaniline] | 8 (≈ 37.5 µM) | did not show cytotoxic effects | Over 80% |  |  |  |  |  |  |  |  |  |  |  |  |  |
| N'-((E)-4-Methylbenzylidene)-4-(4-(2-((Z)-4-methylbenzylidene)hydrazine-1-carbonyl)-3-hydroxybenzyl)-2-hydroxybenzohydrazide [Compound 5f] |  |  |  | 0.0 | 38 | 15 | 53 | 37 | 0.070 | 0.125 | 0.125 | 0.125 | 77 | 33 | 37 | 33 |
